Laboratory results reported in patent US20240190864A1 (YA THERAPEUTICS INC, priority 2021, published 2024).

Legend:
BTK = BTK (Homo sapiens, UniProt Q06187); test: BTK Kinase Test; format: biochemical; settings: BTK kinase inhibitory activity; enzyme with compound 30 min, ATP 50 μM, ULight poly GT substrate
Method: Dilute 350 ng/uL BTK mother solution with kinase buffer solution (50 mM HEPES, 10 mM MgCl2, 2 mM DTT, 1 mM EGTA, 0.01% Tween 20), and add 6 μL 1.67×0.134 ng/μL working solution (final concentration 0.08 ng/μL), using the nanoliter sampler, add different compounds dissolved by DMSO into the pores, so that the final concentration of the compound is 1000 nM-0.244 nM, and the final concentration of the positive drug is 50 nM-0.0122 nM. Four times the gradient, a total of seven concentrations are available. At the same time, set up blank control pores (without enzyme) and negative control pores (with enzyme, with solvent DMSO), and set up two double pores. After the enzyme reacts with compound or solvent for 30 min, 5×250 μM ATP (final concentration is 50 μM) and 5×0.5 μM Substrate (final concentration 0.1 μμM. ULight poly GT), mix at 1:1, 4 per hole μL is added into the hole; after sealing, add […] to each hole after reacting at room temperature for 2 hours μL 4×8 nM detection reagent (final concentration is 2 nM, Ab), incubate at room temperature for 1 hour; PE instrument reading board (excitation […], emission 665 nm). Calculate the inhibition rate and calculate the IC50 value.

[1] = tested on: Diffuse large B cell lymphoma cell strain TMD-8; test: Tumor Cell Proliferation Inhibition Assay (CellTiter-Glo); format: cell-based; settings: Homo sapiens, TMD8; TMD-8 cells, incubated with compound 72 hours, 10% fetal calf serum, ATP content
Method: Cell viability was evaluated by measuring a content of triphosadenine (ATP) by using CellTiter-Glo luminescent cell viability assay kit method (Promega, #G7572, Madison, WI). Diffuse large B cell lymphoma cell strain TMD-8 cell strain is purchased from American Type Culture Collection (ATCC). After the cells were digested from a cell culture dish by pancreatin and re-suspended by DPBS culture medium, a Scepter automatic cell counter (Millipore, #PHCC00000) was used for counting to measure a cell density. The cells were diluted to be a solution containing 44,000 cells per milliliter. The cell solution with the adjusted density was added into a cell assay plate with 90 μl per well. The well plate was placed to an incubator with 5% CO2 at 37° C. to be incubated for 24 hours and then added with the compound to be tested with different concentrations. The cells and the compound were together incubated for 72 hours in the presence of 10% fetal calf serum. The content of ATP was measured by using CellTiter-Glo® Luminescent Cell Viability Assay kit (referring to manufacturer's instruction) to evaluate the inhibition to the cell growth. Briefly speaking, each well was added with 30 μl of CellTiter-Glo® reagent, the plate was shaken for 10 minutes to induce the cells to be lysed, and fluorescence signal was detected and recorded by fluorescence/chemiluminescence analyzer Fluoroskan Ascent FL (Thermo Scientific Fluoroskan Ascent FL). The maximal signal value was obtained from cells processed by dimethyl sulfoxide (DMSO) for 72 or 120 hours. The minimal signal value obtained from separate culture medium (wherein the number of cells was zero) was defined as 0. Inhibition ratio %=(maximal signal value−compound signal value)/(maximal signal value−minimal signal value)×100%. The data was processed by using GraphPad Prism V5.0 (GraphPad Software, San Diego, CA) software. IC50 value was fitted and calculated via S-shaped dose-response curve.

Sequence of BTK (Q06187 whole entry): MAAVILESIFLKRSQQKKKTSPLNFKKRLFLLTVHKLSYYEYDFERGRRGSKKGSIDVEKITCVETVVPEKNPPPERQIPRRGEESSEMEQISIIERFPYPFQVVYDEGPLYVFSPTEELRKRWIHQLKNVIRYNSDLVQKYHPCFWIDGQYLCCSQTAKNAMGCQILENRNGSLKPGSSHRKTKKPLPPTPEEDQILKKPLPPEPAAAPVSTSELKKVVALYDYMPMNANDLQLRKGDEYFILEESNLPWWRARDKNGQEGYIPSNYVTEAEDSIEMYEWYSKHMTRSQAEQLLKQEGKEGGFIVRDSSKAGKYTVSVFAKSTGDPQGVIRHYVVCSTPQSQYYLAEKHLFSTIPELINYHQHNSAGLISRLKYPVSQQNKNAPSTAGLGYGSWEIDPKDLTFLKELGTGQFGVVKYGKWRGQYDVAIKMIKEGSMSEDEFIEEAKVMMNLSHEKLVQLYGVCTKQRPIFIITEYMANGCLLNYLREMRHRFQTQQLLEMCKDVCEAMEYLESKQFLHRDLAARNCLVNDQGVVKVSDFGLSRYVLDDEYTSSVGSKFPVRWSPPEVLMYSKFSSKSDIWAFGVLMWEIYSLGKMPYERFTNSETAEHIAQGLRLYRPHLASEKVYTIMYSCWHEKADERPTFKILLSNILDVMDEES

IC50 (BTK) [µM] | IC50 [1] [µM] | Compound
≤ 0.01 | ≤ 0.01 | C=CC(=O)N1CCC[C@H](c2nc(-c3ccc(Oc4ccccc4)cc3)c(C(N)=O)c3[nH]ccc23)C1 [Compound 26, (S)-4-(1-acryloylpiperidin-3-yl)-6-(4-phenoxyphenyl)-1H-pyrrolo[3,2-c]pyridine-7-carboxamide]
≤ 0.01 |  | CC#CC(=O)N[C@H]1CCCN(c2ncc(C(N)=O)c3[nH]cnc23)C1 [Compound 36, (S)-4-(3-(but-2-ynamido)piperidin-1-yl)-1H-imidazo[4,5-c]pyridine-7-carboxamide]
≤ 0.01 | ≤ 0.01 | C=CC(=O)N1CCC(c2nc(-c3ccc(Oc4ccccc4)cc3)c(C(N)=O)c3[nH]ccc23)CC1 [Compound 25, 4-(1-acryloylpiperidin-4-yl)-6-(4-phenoxyphenyl)-1H-pyrrolo [3,2-c]pyridine-7-carboxamide]
≤ 0.01 |  | CC#CC(=O)N[C@@H]1CCCN(c2nc(-c3ccc(Oc4ccccc4)cc3)c(C(N)=O)c3[nH]c(=O)[nH]c23)C1 [Compound 6, (R)-4-(3-(but-2-ynamido)piperidin-1-yl)-2-oxo-6-(4-phenoxyphenyl)-2,3-dihydro-1H-imidazo[4,5-c]pyridine-7-carboxamide]
≤ 0.01 | ≤ 0.01 | C=CC(=O)N1CCC(c2ncc(C(N)=O)c3[nH]c(=O)[nH]c23)CC1 [Compound 40, 4-(1-acryloylpiperidin-4-yl)-2-oxo-2,3-dihydro-1H-imidazo[4,5-c]pyridine-7-carboxamide]
≤ 0.01 | ≤ 0.01 | CC#CC(=O)N[C@H]1CCCN(c2ncc(C(N)=O)c3[nH]c(=O)[nH]c23)C1 [Compound 38, (S)-4-(3-(but-2-ynamido)piperidin-1-yl)-2-oxo-2,3-dihydro-1H-imidazo[4,5-c]pyridine-7-carboxamide]
≤ 0.01 | ≤ 0.01 | C=CC(=O)N1CCC[C@@H](c2nc(-c3ccc(Oc4ccccc4)cc3)c(C(N)=O)c3[nH]ccc23)C1 [Compound 27, (R)-4-(1-acryloylpiperidin-3-yl)-6-(4-phenoxyphenyl)-1H-pyrrolo[3,2-c]pyridine-7-carboxamide]
≤ 0.01 |  | CC#CC(=O)N[C@@H]1CCCN(c2nc(-c3ccc(Oc4ccccc4)cc3)c(C(N)=O)c3[nH]ccc23)C1 [Compound 24, (R)-4-(3-(but-2-ynamido)piperidin-1-yl)-6-(4-phenoxyphenyl)-1H-pyrrolo[3,2-c]pyridine-7-carboxamide]
≤ 0.01 |  | CC#CC(=O)N[C@H]1CCCN(c2ncc(C(N)=O)c3[nH]c(=O)c(=O)[nH]c23)C1 [Compound 28, (S)-5-(3-(but-2-ynamido)piperidin-1-yl)-2,3-dioxo-1,2,3,4-tetrahydropyrido[3,4-b]pyrazine-8-carboxamide]
≤ 0.01 | ≤ 0.01 | CC#CC(=O)N[C@H]1CCCN(c2nc(-c3ccc(Oc4ccccc4)cc3)c(C(N)=O)c3[nH]ccc23)C1 [Compound 23, (S)-4-(3-(but-2-ynamido)piperidin-1-yl)-6-(4-phenoxyphenyl)-1H-pyrrolo[3,2-c]pyridine-7-carboxamide]
≤ 0.01 |  | CC#CC(=O)N[C@H]1CCN(c2nc(-c3ccc(Oc4ccccc4)cc3)c(C(N)=O)c3[nH]c(=O)[nH]c23)C1 [Compound 5, (S)-4-(3-(but-2-ynamido)pyrrolidin-1-yl)-2-oxo-6-(4-phenoxyphenyl)-2,3-dihydro-1H-imidazo[4,5-c]pyridine-7-carboxamide]
≤ 0.01 |  | C=CC(=O)N[C@H]1CCCN(c2nc(-c3ccc(Oc4ccccc4)cc3)c(C(N)=O)c3[nH]c(=O)[nH]c23)C1 [Compound 3, (S)-4-(3-acrylamidopiperidin-1-yl)-2-oxo-6-(4-phenoxyphenyl)-2,3-dihydro-1H-imidazo[4,5-c]pyridine-7-carboxamide]
≤ 0.01 |  | CC#CC(=O)N[C@H]1CCCN(c2nc(-c3ccc(Oc4ccccc4)cc3)c(C(N)=O)c3[nH]c(C)nc23)C1 [Compound 19, (S)-4-(3-(but-2-ynamido)piperidin-1-yl)-2-methyl-6-(4-phenoxyphenyl)-1H-imidazo[4,5-c]pyridine-7-carboxamide]
≤ 0.01 |  | C=CC(=O)N1CCC(c2nc(-c3ccc(Oc4ccccc4)cc3)c(C(N)=O)c3[nH]c(=O)[nH]c23)CC1 [Compound 20, 4-(1-acryloylpiperidin-4-yl)-2-oxo-6-(4-phenoxyphenyl)-2,3-dihydro-1H-imidazo[4,5-c]pyridine-7-carboxamide]
≤ 0.01 |  | CC#CC(=O)N[C@@H]1CCN(c2nc(-c3ccc(Oc4ccccc4)cc3)c(C(N)=O)c3[nH]c(=O)[nH]c23)C1 [Compound 9, (R)-4-(3-(but-2-ynamido)pyrrolidin-1-yl)-2-oxo-6-(4-phenoxyphenyl)-2,3-dihydro-1H-imidazo[4,5-c]pyridine-7-carboxamide]
≤ 0.01 |  | CC#CC(=O)N[C@H]1CCCN(c2nc(-c3ccc(Oc4ccccc4)cc3)c(C(N)=O)c3[nH]c(=O)[nH]c23)C1 [Compound 1, (S)-4-(3-(but-2-ynamido)piperidin-1-yl)-2-oxo-6-(4-phenoxyphenyl)-2,3-dihydro-1H-imidazo[4,5-c]pyridine-7-carboxamide]
≤ 0.01 |  | CC#CC(=O)N[C@H]1CCCN(c2nc(-c3ccc(Oc4ccccc4)cc3)c(C(N)=O)c3[nH]cnc23)C1 [Compound 18, (S)-4-(3-(but-2-ynamido)piperidin-1-yl)-6-(4-phenoxyphenyl)-1H-imidazo[4,5-c]pyridine-7-carboxamide]
≤ 0.01 |  | CC#CC(=O)N[C@H]1CCCN(c2nc(-c3ccc(Oc4ccccc4)cc3)c(C(N)=O)c3[nH]ncc23)C1 [Compound 2, (S)-4-(3-(but-2-ynamido)piperidin-1-yl)-6-(4-phenoxyphenyl)-1H-pyrazolo [4,5-c]pyridine-7-carboxamide]

Compound | IC50 (BTK) [µM] | IC50 [1] [µM]
(R)-4-(3-acrylamidopiperidin-1-yl)-2-oxo-6-(4-phenoxyphenyl)-2,3-dihydro-1H-imidazo[4,5-c]pyridine-7-carboxamide [Compound 8] | ≤ 0.01 | 
(R)-4-(3-(but-2-ynamido)piperidin-1-yl)-6-(4-phenoxyphenyl)-1H-pyrazolo [4,3-c]pyridine-7-carboxamide [Compound 7] | ≤ 0.01 | 
(S)-4-(3-acrylamidopyrrolidin-1-yl)-2-oxo-6-(4-phenoxyphenyl)-2,3-dihydro-1H-imidazo[4,5-c]pyridine-7-carboxamide [Compound 4] | ≤ 0.01 | 
